What was measured:
hNaV1.7 = molecular target: T1, hNaV1.7 (Homo sapiens, UniProt Q15858); experiment: FDSS Membrane Potential In-Vitro Assay; type: cell-based; details: stimulation with veratridine and scorpion venom, read-out: NaV1.7 IC50
T1 construct: expressed in transfected cells

NaV1.7 = molecular target: T2, NaV1.7 (Homo sapiens, UniProt Q15858); experiment: Patchliner Electrophysiological In-Vitro Assay (NaV1.7); type: cell-based; details: Patchliner patch clamp, HEK293, holding at V1/2
T2 construct: expressed in transfected cells
Description: In vitro assays were performed in recombinant cell line that stably express a heterotrimeric protein of interest from an introduced nucleic acid encoding the alpha subunit (hNav1.7, SCN9A), the beta subunit (SCNB1) and the beta subunit (SCNB2). The cell line was engineered using Human Embryonic Kidney 293 cells as host background. Additional cell lines stably expressing recombinant Nav1.7 or Nav1.5 alpha subunit alone or in combination with various beta subunits can also be used in in-vitro assays.
The recording of sodium current from stable HEK293 cell lines expressing NaV1.7 or NaV1.5 was done on a Patchliner® instrument, Nanion Technologies. The Patchliner® is a fully automated bench-top patch clamp platform and can record simultaneously from up to eight single cells with GΩ seals.
For patch-clamp experiments, cells were grown under standard culturing conditions in Dulbecco's Modified Eagles medium supplemented with 10% fetal bovine serum, glutamine and HEPES. Cells were harvested and kept in suspension for up to 4 hours with no significant change in quality or ability to patch. Whole cell patch clamp recordings were conducted according to Nanion's standard procedure for the Patchliner®. Experiments were conducted at room temperature.
Voltage protocols were designed to establish: 1) peak current amplitude (Imax), 2) test potential (Vmax) and 3) half-inactivation potential (V1/2) for each of the eight individual cells. To determine V1/2, a standard steady-state inactivation protocol was executed using a series of fifteen 500 ms depolarizing pre-pulses in 10 mV increments (starting at −130 mV) and immediately followed by a 10 ms test pulse to Vmax. To estimate test compound affinity to the inactivated state of sodium channel (Ki), the holding potential for each cell was set automatically to the V1/2 calculated from a steady-state inactivation data. The current was activated with the following voltage protocol: holding at V1/2 for 2-5 seconds, return to the −120 mV for 5-10 ms to relieve fast inactivation, stepping to test potential (Vmax) for 10-20 ms. This voltage protocol was repeated every 10 seconds to establish the baseline with 2-3 buffer additions followed by the test compound addition. The dose-dependent inhibition was analyzed using Nanion's Data Analysis Package.

T2 sequence (Q15858 whole entry): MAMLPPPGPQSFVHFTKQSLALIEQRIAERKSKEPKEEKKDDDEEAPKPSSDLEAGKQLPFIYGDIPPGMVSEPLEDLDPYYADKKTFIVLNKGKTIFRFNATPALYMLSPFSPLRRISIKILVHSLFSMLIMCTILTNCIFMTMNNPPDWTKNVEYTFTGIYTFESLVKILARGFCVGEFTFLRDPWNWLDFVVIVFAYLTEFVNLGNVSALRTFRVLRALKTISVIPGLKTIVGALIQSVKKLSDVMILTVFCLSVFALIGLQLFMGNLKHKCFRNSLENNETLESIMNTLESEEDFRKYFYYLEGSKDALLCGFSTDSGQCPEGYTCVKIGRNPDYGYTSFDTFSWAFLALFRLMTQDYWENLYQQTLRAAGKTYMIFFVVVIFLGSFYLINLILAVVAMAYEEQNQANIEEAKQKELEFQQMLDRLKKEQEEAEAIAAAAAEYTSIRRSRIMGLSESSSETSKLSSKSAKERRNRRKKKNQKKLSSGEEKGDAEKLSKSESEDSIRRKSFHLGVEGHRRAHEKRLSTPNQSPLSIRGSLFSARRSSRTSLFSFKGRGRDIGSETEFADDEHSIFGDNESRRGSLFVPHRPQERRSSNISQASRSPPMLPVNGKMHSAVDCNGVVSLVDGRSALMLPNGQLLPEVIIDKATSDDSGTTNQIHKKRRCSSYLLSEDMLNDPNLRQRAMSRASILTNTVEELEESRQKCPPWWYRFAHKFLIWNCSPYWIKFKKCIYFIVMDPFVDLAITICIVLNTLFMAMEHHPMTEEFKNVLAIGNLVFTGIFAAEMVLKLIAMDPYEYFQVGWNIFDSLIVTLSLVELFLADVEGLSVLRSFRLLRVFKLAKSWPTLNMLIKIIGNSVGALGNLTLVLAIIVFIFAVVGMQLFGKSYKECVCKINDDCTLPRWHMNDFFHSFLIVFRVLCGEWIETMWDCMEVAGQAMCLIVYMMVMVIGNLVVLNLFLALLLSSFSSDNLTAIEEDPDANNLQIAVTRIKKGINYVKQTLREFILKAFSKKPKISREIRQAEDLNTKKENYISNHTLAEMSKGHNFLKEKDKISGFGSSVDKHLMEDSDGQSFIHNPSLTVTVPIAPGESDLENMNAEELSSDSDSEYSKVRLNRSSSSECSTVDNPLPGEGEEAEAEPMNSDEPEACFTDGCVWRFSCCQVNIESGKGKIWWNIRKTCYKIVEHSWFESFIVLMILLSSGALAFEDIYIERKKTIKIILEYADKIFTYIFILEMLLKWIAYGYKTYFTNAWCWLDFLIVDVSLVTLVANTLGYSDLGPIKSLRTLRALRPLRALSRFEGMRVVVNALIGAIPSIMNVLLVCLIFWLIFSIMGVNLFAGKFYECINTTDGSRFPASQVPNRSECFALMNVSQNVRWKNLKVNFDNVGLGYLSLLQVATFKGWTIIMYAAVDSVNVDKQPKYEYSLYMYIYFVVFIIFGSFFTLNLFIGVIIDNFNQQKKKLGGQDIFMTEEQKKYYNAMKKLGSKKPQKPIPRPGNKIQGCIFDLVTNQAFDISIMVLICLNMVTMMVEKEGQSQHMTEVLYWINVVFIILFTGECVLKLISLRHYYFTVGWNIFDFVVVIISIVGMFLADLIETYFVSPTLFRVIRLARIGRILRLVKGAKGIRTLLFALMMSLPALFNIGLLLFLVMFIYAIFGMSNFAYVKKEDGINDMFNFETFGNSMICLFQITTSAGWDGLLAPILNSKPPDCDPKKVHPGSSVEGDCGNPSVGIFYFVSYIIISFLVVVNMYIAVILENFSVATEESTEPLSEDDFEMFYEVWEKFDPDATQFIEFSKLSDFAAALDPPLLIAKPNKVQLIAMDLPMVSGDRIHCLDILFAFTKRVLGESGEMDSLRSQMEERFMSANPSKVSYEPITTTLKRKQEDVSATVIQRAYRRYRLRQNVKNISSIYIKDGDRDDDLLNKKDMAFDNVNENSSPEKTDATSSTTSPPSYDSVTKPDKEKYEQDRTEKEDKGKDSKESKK
T2 sequence (Q07699 19-218 partner): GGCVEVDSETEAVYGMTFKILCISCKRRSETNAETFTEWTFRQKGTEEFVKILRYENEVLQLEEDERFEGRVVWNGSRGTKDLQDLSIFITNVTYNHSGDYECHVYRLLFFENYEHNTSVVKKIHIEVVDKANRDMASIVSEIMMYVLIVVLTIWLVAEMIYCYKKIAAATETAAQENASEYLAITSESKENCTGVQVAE
T2 sequence (O60939 30-215 partner): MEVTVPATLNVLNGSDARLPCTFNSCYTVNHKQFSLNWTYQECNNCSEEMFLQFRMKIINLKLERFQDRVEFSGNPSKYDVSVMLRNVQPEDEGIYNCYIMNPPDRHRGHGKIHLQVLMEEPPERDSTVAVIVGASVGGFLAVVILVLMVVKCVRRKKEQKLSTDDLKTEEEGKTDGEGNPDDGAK
T1 sequence (Q15858 whole entry): as the sequence (Q15858 whole entry) above
T1 sequence (Q07699 19-218 partner): as the sequence (Q07699 19-218 partner) above
T1 sequence (O60939 30-215 partner): as the sequence (O60939 30-215 partner) above

| Compound | IC50 (NaV1.7) | IC50 (hNaV1.7) |
| --- | --- | --- |
| O=C(O)CNC(=O)c1cccc(-c2cc(Cl)ccc2Oc2cc(F)c(S(=O)(=O)Nc3ncns3)cc2Cl)n1 [Compound 7, 2-(6-(2-(4-(N-(1,2,4-thiadiazol-5-yl)sulfamoyl)-2-chloro-5-fluorophenoxy)-5-chlorophenyl)picolinamido)acetic acid] |  | 130 to 1000 nM |
| N#Cc1cc(S(=O)(=O)Nc2cscn2)ccc1Oc1ccc(Cl)cc1CCCNCCC(=O)O [Compound 23, 3-((3-(5-chloro-2-(2-cyano-4-(N-(thiazol-4-yl)sulfamoyl)phenoxy)phenyl)propyl)amino)propanoic acid] | 100 to 1000 nM | 1000 to 20000 nM |
| O=S(=O)(Nc1cscn1)c1cc(Cl)c(Oc2ccc(Cl)cc2-c2cnn3c2NCCC3)cc1F [Compound 33, 5-chloro-4-(4-chloro-2-(4,5,6,7-tetrahydropyrazolo[1,5-a]pyrimidin-3-yl)phenoxy)-2-fluoro-N-(thiazol-4-yl)benzenesulfonamide] | 100 to 1000 nM |  |
| CCOC(=O)CNCCCc1cc(Cl)ccc1Oc1cc(F)c(S(=O)(=O)Nc2nccs2)cc1Cl [Compound 35, ethyl 2-((3-(5-chloro-2-(2-chloro-5-fluoro-4-(N-(thiazol-2-yl)sulfamoyl)phenoxy)phenyl)propyl)amino)acetate] |  | 100 to 500 nM |
| O=S(=O)(Nc1nccs1)c1cc(Cl)c(Oc2ccc(Cl)cc2CCCNc2cn[nH]c2)cc1F [Compound 42, 4-(2-(3-((1H-pyrazol-4-yl)amino)propyl)-4-chlorophenoxy)-5-chloro-2-fluoro-N-(thiazol-2-yl)benzenesulfonamide] |  | 1000 to 20000 nM |
| O=C(O)CCNCCCc1cc(Cl)ccc1Oc1cc(F)c(S(=O)(=O)Nc2nccs2)cc1F [Compound 43, 3-((3-(5-chloro-2-(2,5-difluoro-4-(N-(thiazol-2-yl)sulfamoyl)phenoxy)phenyl)propyl)amino)propanoic acid] |  | 100 to 500 nM |
| O=S(=O)(Nc1cscn1)c1cc(Cl)c(Oc2ccc(Cl)cc2CCCNc2cc[nH]n2)cc1F [Compound 45, 4-(2-(3-((1H-pyrazol-3-yl)amino)propyl)-4-chlorophenoxy)-5-chloro-2-fluoro-N-(thiazol-4-yl)benzenesulfonamide] |  | 1000 to 20000 nM |
| CNC(=O)CNCCCc1cc(Cl)ccc1Oc1cc(F)c(S(=O)(=O)Nc2cscn2)cc1Cl [Compound 46, 2-((3-(5-chloro-2-(2-chloro-5-fluoro-4-(N-(thiazol-4-yl)sulfamoyl)phenoxy)phenyl)propyl)amino)-N-methylacetamide] |  | 100 to 500 nM |
| O=S(=O)(Nc1cscn1)c1cc(Cl)c(Oc2ccc(Cl)cc2CCCN2CCc3[nH]ncc3C2)cc1F [Compound 48, 5-chloro-4-(4-chloro-2-(3-(6,7-dihydro-1H-pyrazolo[4,3-c]pyridin-5(4H)-yl)propyl)phenoxy)-2-fluoro-N-(thiazol-4-yl)benzenesulfonamide] |  | 500 to 1000 nM |
| CC(C)CCOC(=O)CNCCCc1cc(Cl)ccc1Oc1cc(F)c(S(=O)(=O)Nc2nccs2)cc1Cl [Compound 50, isopentyl 2-((3-(5-chloro-2-(2-chloro-5-fluoro-4-(N-(thiazol-2-yl)sulfamoyl)phenoxy)phenyl)propyl)amino)acetate] |  | 500 to 1000 nM |
| CC(C)OC(=O)CNCCCc1cc(Cl)ccc1Oc1cc(F)c(S(=O)(=O)Nc2nccs2)cc1Cl [Compound 51, isopropyl 2-((3-(5-chloro-2-(2-chloro-5-fluoro-4-(N-(thiazol-2-yl)sulfamoyl)phenoxy)phenyl)propyl)amino)acetate] |  | 500 to 1000 nM |
| O=S(=O)(Nc1cscn1)c1cc(Cl)c(Oc2ccc(Cl)cc2CCCN2CCn3ccnc3C2)cc1F [Compound 55, 5-chloro-4-(4-chloro-2-(3-(5,6-dihydroimidazo[1,2-a]pyrazin-7(8H)-yl)propyl)phenoxy)-2-fluoro-N-(thiazol-4-yl)benzenesulfonamide] |  | 100 to 500 nM |
| O=S(=O)(Nc1nccs1)c1cc(Cl)c(Oc2ccc(Cl)cc2-c2cnn3c2NCCC3)cc1F [Compound 57, 5-chloro-4-(4-chloro-2-(4,5,6,7-tetrahydropyrazolo[1,5-a]pyrimidin-3-yl)phenoxy)-2-fluoro-N-(thiazol-2-yl)benzenesulfonamide] |  | 100 to 500 nM |
| CS(=O)(=O)CCNCCCc1cc(Cl)ccc1Oc1cc(F)c(S(=O)(=O)Nc2nccs2)cc1Cl [Compound 59, 5-chloro-4-(4-chloro-2-(3-((2-(methylsulfonyl)ethyl)amino)propyl)phenoxy)-2-fluoro-N-(thiazol-2-yl)benzenesulfonamide] |  | 100 to 500 nM |
| NC(=O)CNCCCc1ccccc1Oc1cc(F)c(S(=O)(=O)Nc2cscn2)cc1Cl [Compound 60, 2-((3-(2-(2-chloro-5-fluoro-4-(N-(thiazol-4-yl)sulfamoyl)phenoxy)phenyl)propyl)amino)acetamide] | < 100 nM |  |
| CCOC(=O)CN(C)CCCc1cc(Cl)ccc1Oc1cc(F)c(S(=O)(=O)Nc2nccs2)cc1Cl [Compound 68, ethyl 2-((3-(5-chloro-2-(2-chloro-5-fluoro-4-(N-(thiazol-2-yl)sulfamoyl)phenoxy)phenyl)propyl)(methyl)amino)acetate] |  | 500 to 1000 nM |
| NC(=O)CNCCCc1cc(Cl)ccc1Oc1cc(F)c(S(=O)(=O)Nc2cscn2)cc1F [Compound 69, 2-((3-(5-chloro-2-(2,5-difluoro-4-(N-(thiazol-4-yl)sulfamoyl)phenoxy)phenyl)propyl)amino)acetamide] | < 100 nM |  |

The next lines start with results.

| IC50 (NaV1.7) | Compound | IC50 (hNaV1.7) |
| --- | --- | --- |
| < 100 nM | COC(=O)CNCCCc1cc(Cl)ccc1Oc1cc(F)c(S(=O)(=O)Nc2cscn2)cc1Cl [Compound 24, methyl 2-((3-(5-chloro-2-(2-chloro-5-fluoro-4-(N-(thiazol-4-yl)sulfamoyl)phenoxy)phenyl)propyl)amino)acetate] |  |
| 100 to 1000 nM | O=C(O)CCNCCCc1cc(F)ccc1Oc1cc(F)c(S(=O)(=O)Nc2cscn2)cc1Cl [Compound 25, 3-((3-(2-(2-chloro-5-fluoro-4-(N-(thiazol-4-yl)sulfamoyl)phenoxy)-5-fluorophenyl)propyl)amino)propanoic acid] |  |
| < 100 nM | O=C(O)CCNCCCc1cc(Cl)ccc1Oc1cc(F)c(S(=O)(=O)Nc2nccs2)cc1Cl [Compound 29, 3-((3-(5-chloro-2-(2-chloro-5-fluoro-4-(N-(thiazol-2-yl)sulfamoyl)phenoxy)phenyl)propyl)amino)propanoic acid] |  |
| < 100 nM | CCCCCOC(=O)N(CCCc1cc(Cl)ccc1Oc1cc(F)c(S(=O)(=O)Nc2nccs2)cc1Cl)CC(=O)O [Compound 53, 2-((3-(5-chloro-2-(2-chloro-5-fluoro-4-(N-(thiazol-2-yl)sulfamoyl)phenoxy)phenyl)propyl)((pentyloxy)carbonyl)amino)acetic acid] |  |
| < 100 nM | C#CCN(CCCc1cc(Cl)ccc1Oc1cc(F)c(S(=O)(=O)Nc2cscn2)cc1Cl)CC(=O)O [Compound 61, 2-((3-(5-chloro-2-(2-chloro-5-fluoro-4-(N-(thiazol-4-yl)sulfamoyl)phenoxy)phenyl)propyl)(prop-2-yn-1-yl)amino)acetic acid] |  |
| < 100 nM | C=CCN(CCCc1cc(Cl)ccc1Oc1cc(F)c(S(=O)(=O)Nc2nccs2)cc1Cl)CC(=O)O [Compound 62, 2-(allyl(3-(5-chloro-2-(2-chloro-5-fluoro-4-(N-(thiazol-2-yl)sulfamoyl)phenoxy)phenyl)propyl)amino)acetic acid] |  |
| < 100 nM | NC(=O)CNCCCc1cc(Cl)ccc1Oc1cc(F)c(S(=O)(=O)Nc2nccs2)cc1Cl [Compound 63, 2-((3-(5-chloro-2-(2-chloro-5-fluoro-4-(N-(thiazol-2-yl)sulfamoyl)phenoxy)phenyl)propyl)amino)acetamide] |  |
| < 100 nM | CC#CCN(CCCc1cc(Cl)ccc1Oc1cc(F)c(S(=O)(=O)Nc2nccs2)cc1Cl)CC(=O)O [Compound 64, 2-(but-2-yn-1-yl(3-(5-chloro-2-(2-chloro-5-fluoro-4-(N-(thiazol-2-yl)sulfamoyl)phenoxy)phenyl)propyl)amino)acetic acid] |  |
| < 100 nM | CCCN(CCCc1cc(Cl)ccc1Oc1cc(F)c(S(=O)(=O)Nc2nccs2)cc1Cl)CC(=O)O [Compound 65, 2-((3-(5-chloro-2-(2-chloro-5-fluoro-4-(N-(thiazol-2-yl)sulfamoyl)phenoxy)phenyl)propyl)(propyl)amino)acetic acid] |  |
| < 100 nM | C#CCN(CCCc1cc(Cl)ccc1Oc1cc(F)c(S(=O)(=O)Nc2nccs2)cc1Cl)CCC(=O)O [Compound 66, 3-((3-(5-chloro-2-(2-chloro-5-fluoro-4-(N-(thiazol-2-yl)sulfamoyl)phenoxy)phenyl)propyl)(prop-2-yn-1-yl)amino)propanoic acid] |  |
| < 100 nM | C#CCN(CCCc1cc(Cl)ccc1Oc1cc(F)c(S(=O)(=O)Nc2nccs2)cc1F)CC(=O)O [Compound 67, 2-((3-(5-chloro-2-(2,5-difluoro-4-(N-(thiazol-2-yl)sulfamoyl)phenoxy)phenyl)propyl)(prop-2-yn-1-yl)amino)acetic acid] |  |

— US20160221974A1, “SODIUM CHANNEL MODULATORS FOR THE TREATMENT OF PAIN AND DIABETES” (CHROMOCELL CORPORATION, priority 2013, published 2016)
